{"source": "patent US20250049927A1", "about": "“MODIFIED OLIGONUCLEOTIDE-DRUG CONJUGATE AND USE THEREOF” (INTEROLIGO CORPORATION., priority 2021, published 2025)", "key": {"[1]": {"test_system": "Sprague-Dawley male rats", "assay": "Death of rats after intravenous administration in the pharmacokinetic study", "type": "in vivo", "conditions": "MMAE 4 mg/kg intravenous", "procedure": "Specifically, Sprague-Dawley male rats (8 weeks old, purchased from Youngbio) were acclimatized for 1 week in the animal room of the Catholic University Songsim Campus, and then pharmacokinetic experiments were performed. Rats were induced with isoflurane, an inhalation anesthetic, and PE50 (polyethylene tubing, Clay Adams, Becton Dickinson, NJ, USA) was inserted into the carotid (for blood collection) and jugular vein (for drug administration), followed by suturing with suture, and then end portions thereof were fixed to the back of the neck. During the surgery, anesthesia was maintained using ether, and about 0.5 mL of physiological saline solution containing heparin (20 units/mL) was injected to prevent blood from coagulating in the cannula. After completing the surgery, each rat was placed in a metabolic cage and allowed to fully recover from the anesthetic (for 4-5 hours). […] All of Example 9, MMAE and gemcitabine were dissolved in physiological saline at 2 mL per kg of body weight and administered into the jugular vein at doses of 40 mg/kg, 4 mg/kg and 2 mg/kg, respectively. […]"}, "[2]": {"assay": "Pharmacokinetic evaluation in rats: plasma MMAE by LC-MS/MS", "type": "in vivo, Sprague-Dawley male rats", "conditions": "rat, MMAE 4 mg/kg alone intravenous", "experimental": "After pretreating samples by protein precipitation, plasma concentration of MMAE was analyzed using liquid chromatography-tandem mass spectrometry (hereinafter referred to as LC-MS/MS) established in the Pharmacology/Pharmacokinetics Laboratory of the Catholic University College of Pharmacy. All analysis processes were conducted under light-shielding conditions.\n[…] standard products were dissolved in acetonitrile to prepare a 1 mg/mL of storage solution and store it frozen."}, "[3]": {"test_system": "BxPC-3 pancreatic cancer cell lines", "assay": "Pancreatic cancer cell growth inhibition, WST assay", "type": "cell-based", "conditions": "BxPC-3, 72 hours treatment, absorbance 450 nm", "experimental": "The in vitro anticancer efficacy of the modified oligonucleotide-drug conjugates was verified using pancreatic cancer cell lines. Pancreatic cancer cell lines (BxPC-3) were treated with the above-described examples and comparative examples at concentrations of 0, 0.01, 0.1, 1, 10, 100, 500 and 1000 μM, and the specific IC50 measurement method and measurement results are as follows.\nAll cell lines were cultured in a 5% CO2 incubator at 37° C. The BxPC-3 pancreatic cancer cell lines were cultured using a medium containing 10% FBS and 1% antibiotics put into ATCC modified RPMI-1640 (Thermo Scientific, USA). The medium was replaced once every 2-3 days, and passage-cultured at a time when about 70-90% of a culture dish was filled with the cells. First, the cells were washed with PBS, then 0.05% Trypsin-EDTA was added and cultured at 37° C. for 2 minutes, and then a new medium was added to inactivate trypsin. The cells were separated from trypsin and medium using a centrifuge, then another new medium was added and passaged at a ratio of 1:4, followed by culturing the same. All cells were periodically checked for contamination by mycoplasma using a kit (Intron, Korea), and in vitro efficacy evaluation experiments were conducted using only cells in which contamination was not detected.\nUsing WST reagent (Dongin LS, Korea), an inhibitory effect on pancreatic cancer cell growth by drug treatment was confirmed and IC50 was measured. An orange coloring substance called formazan is produced in WST by mitochondrial dehydrogenase within cells, which is effective only in living cells. The specific test method is as follows.\nThe cells cultured by the above-described method were dispensed by 2×10^4 into each well of a 96-well culture vessel and cultured for 24 hours. The medium of the cells attached to the culture vessel was replaced with an ATCC modified RPMI-1640 medium containing 5% FBS, and samples of the above-described modified oligonucleotide-drug conjugates (Examples 1-7 and 9-12, and Comparative Example 1-7, respectively) were treated at concentrations of 0, 0.01, 0.1, 1, 10, 100, 500 and 1000 μM. After 72 hours, 10 μl of WST reagent was added to each well and reacted for 2 hours. The produced formazan was measured with an absorbance at 450 nm using a Glomax plate meter (Promega, USA), and IC50 was evaluated according to the protocol in the device. IC50 evaluation results and graphs illustrating the same are shown in Table 2 below and FIGS. 19 to 27 (in Table 2, M=Gemcitabine, and N=5-FdU)."}, "[4]": {"test_system": "BxPC-3-Luc orthotopic pancreatic cancer", "assay": "Orthotopic pancreatic cancer animal model, patch-type collagen drug delivery system inserted at tumor site", "type": "in vivo, BALB/c-nude male mice", "conditions": "2.0 mg-loading collagen patch; for IVIS whole body image: change in luminescence / dead mice: inserted once; for IVIS whole body image: change in luminescence: 4 weeks; for dead mice: 28 days", "description": "To deliver the modified oligonucleotide-drug conjugates to an animal model, high-purity collagen (COLTRIX® Tendoregen, Ubiosis Co., Ltd.) dispersion (1.0%) and samples (e.g., modified oligonucleotide-drug conjugates, gemcitabine, etc.) to be tested were mixed, poured into a circular silicone mold having a diameter of 1 cm, and lyophilized to prepare a “patch-type collagen drug delivery system” in which the samples were loaded in the collagen. Amounts of the samples loaded per patch-type collagen drug delivery system are as shown in Table 3 below (in Table 3, SEQ ID NO: 16 is 5′-(Gem)(Gem)[TGG]4[TTG][TGG]5-3′, wherein Gem-Gemcitabine).\nSpecifically, each of sample (gemcitabine, IO101L (SEQ ID NO: 16) and modified oligonucleotide-drug conjugates (Example 5 and Example 9) to be tested was added to the high-purity collagen, and then uniformly mixed using a multi-mixer (SLRM-3, MYLAB) at 4° C. for 1 hour. Thereafter, a predetermined amount of the collagen-drug mixture was dispensed into a cylindrical silicone mold having a diameter of 1 cm and the collagen-drug mixture was primary frozen at −20° C. for 4 hours or more. After the first freezing was completed, the sample was separated from the cylindrical silicone mold and transferred to a sterile dish or plate, and then secondary frozen at −80° C. for 2 hours or more. After preliminary freezing so that the cold trap temperature of a lyophilizer was-80° C., the mixture was placed in the lyophilizer and lyophilized for more than 16 hours. The lyophilized mixture was compressed in the form of a patch using an acrylic plate, then was put into an aluminum pouch and sealed. The packaged patch-type collagen drug delivery system was refrigerated at 4° C.\nThe frozen cancer cell line (BxPC-3-Luc) (Asan Institute for Life Sciences) was thawed, and then cultured in an RPMI1640 medium (Biowest, Cat #. L0498-100) in which 10% fetal bovine serum (Biowest, Cat #. S1480) and 1% antibiotic (Gibco, Cat #. 15240062) were supplied at 37° C. under 5% CO2 condition. The thawed cells were cultured for one week to confirm that there were no problems with the shape, survival rate, and doubling time.\nCancer cells having a cell survival rate of 95% or more were prepared in order to transplant them into mice. The cells were harvested using trypsin, and prepared so as to transplant them into 5×10^5 cells/25 μl/mouse by being turbid in RPMI 1640 media. 6-week old BALB/c-nude male mice stabilized for 1 week (purchased from Jabio, Korea) were subjected to abdominal anesthesia, and the pancreas was taken out by dissecting the abdominal region of each anesthetized mouse and cells of 5×10^5 cells/25 μl were transplanted. After 2 weeks, tumor formation was confirmed through luciferase imaging. […] The patch-type collagen drug delivery system prepared in the above (1) was inserted (intra-abdominal cavity insertion using surgery) into the tumor site of each mouse in the respective groups. All animal experiments included in the present test were performed according to the Institutional Animal Care and Use Committee (IACUC) of the Asan Institute for Life Sciences [2022-14-058].\nAfter inserting the patch-type collagen drug delivery system, changes in the tumor size were observed using IVIS imaging equipment (Xenogen IVIS spectrum system; Caliper Life Science, Inc., Hopkinton, MA) at an interval of 3 times a week for 4 weeks to check the body weight. […]"}}, "note": "Non-standard residues stand in square brackets, D forms with d. Residues, ends and D or L forms follow the SMILES beside them. *: point of attachment. Dolaproine = CO[C@@H]([C@@H]1CCCN1)[C@@H](C)C(=O)O; Dil = CC[C@H](C)[C@H](NC)[C@@H](CC(=O)O)OC; X1 = C[C@@H](N*)[C@@H](O)c1ccccc1; NMeV = CN[C@H](C(=O)O)C(C)C", "data": [{"compound": "CC[C@H](C)[C@@H]([C@@H](CC(=O)N1CCC[C@H]1[C@H](OC)[C@@H](C)C(=O)N[C@H](C)[C@@H](O)c1ccccc1)OC)N(C)C(=O)[C@@H](NC(=O)[C@@H](NC)C(C)C)C(C)C", "note": "[MMAE, Monomethyl auristatin E] (H-[NMeV]V[Dil][Dolaproine]-X1)", "values": [{"measurement": "death of tested rats", "setting": "[1]", "value": "all tested 7 rats were died"}, {"measurement": "AUC of MMAE up to 120 minutes higher than Example 9 (IO176) 40 mg/kg group", "setting": "[2]", "value": "about 9.70 times"}, {"measurement": "plasma concentration of MMAE at 1 minute after administration", "setting": "[2]", "value": "29640 ± 7190", "unit": "ng/mL"}, {"measurement": "AUCt of MMAE", "setting": "[2]; to final quantification time", "value": "128 ± 16.1", "unit": "µg·min/mL"}, {"measurement": "AUC0-120 of MMAE", "setting": "[2]; up to 120 minutes", "value": "71.7 ± 9.61", "unit": "µg·min/mL"}]}, {"compound": "Example 5 (GGTGGTGGTGGNNGNGGTGGTGGTGG; paclitaxel via acrylamide-C6-NH-succinic acid linker on U; modified_base 13 OTHER; deoxyuridine(dU); modified_base 12 OTHER; gemcitabine; modified_base 15 OTHER)", "values": [{"measurement": "IC50", "setting": "[3]", "value": 100, "unit": "nM"}, {"measurement": "effect of inhibiting tumor (IVIS images, tumor size and weight)", "setting": "[4]", "value": "excellent effect of inhibiting tumor appeared"}, {"measurement": "IVIS whole body image: change in luminescence", "setting": "[4]", "value": "changes in the fluorescence were decreased"}, {"measurement": "dead mice", "setting": "[4]", "value": "no dead mouse was observed"}]}, {"compound": "IO101L: SEQ ID NO: 16, 5′-(Gem)(Gem)[TGG]4[TTG][TGG]5-3′, Gem=Gemcitabine (DNA NNTGGTGGTGGTGGTTGTGGTGGTGGTGGTGG; two 5' gemcitabine nucleotides; modified_base 1 OTHER; gemcitabine; modified_base 2 OTHER)", "values": [{"measurement": "IVIS whole body image: change in luminescence", "setting": "[4]", "value": "luminescence was gradually increased over time"}, {"measurement": "dead mice", "setting": "[4]", "value": "there were dead mice"}]}]}
